US20250170141A1, “MRGPRX2 MODULATORS AND RELATED METHODS OF TREATMENT” (Escient Pharmaceuticals, Inc., priority 2023, published 2025)

Molecular target: T1, human MRGPRX2 (Homo sapiens, UniProt Q96LB1)
T1 construct: expressed in transfected cells; host or cells: CHO cells, stably transfected (G418 and Hygromycin B selection)
T1 sequence (Q96LB1 1-330): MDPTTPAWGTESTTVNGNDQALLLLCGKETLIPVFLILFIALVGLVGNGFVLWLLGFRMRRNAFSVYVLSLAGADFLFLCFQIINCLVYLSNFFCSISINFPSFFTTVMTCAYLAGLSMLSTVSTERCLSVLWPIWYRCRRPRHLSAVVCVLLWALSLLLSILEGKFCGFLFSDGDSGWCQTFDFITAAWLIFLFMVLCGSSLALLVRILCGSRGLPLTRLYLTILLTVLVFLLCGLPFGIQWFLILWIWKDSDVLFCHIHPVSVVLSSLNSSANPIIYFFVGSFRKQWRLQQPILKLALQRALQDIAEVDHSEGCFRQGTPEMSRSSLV
Assay: MRGPRX2 activity: IP-One Gq HTRF assay in CHO cells, antagonism versus 0.3 uM Cortistatin-14
Assay type: cell-based
Conditions: versus 0.3 uM Cortistatin-14 agonist, CHO cells expressing human MRGPRX2, read-out: MRGPRX2 Antagonist Activity
In short: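 Antagonist IC50 was derived from the HTRF IP-1 signal after co-addition of compounds (10 points, top 30 uM, 3-fold steps) and 0.3 μM Cortistatin-14 agonist to human MRGPRX2-expressing CHO cells. Assay buffer contained 50 mM LiCl, pH 8; plates sat 1 h at 37 °C, then 1 h at room temperature.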

`CC(c1cccc(F)c1Cl)c1c(F)ccc2c1NC(NCc1ncccc1F)=NS2(=O)=O` (centres unmarked) [Compound 7-1, 5-(1-(2-chloro-3-fluorophenyl)ethyl)-6-fluoro-3-(((3-fluoropyridin-2-yl)methyl)amino)-4H-benzo[e][1,2,4]thiadiazine 1,1-dioxide] and `CC(c1ccccc1Cl)c1c(F)ccc2c1NC(NCc1ncccc1F)=NS2(=O)=O` (centres unmarked) [Compound 8-1, 5-(1-(2-chlorophenyl)ethyl)-6-fluoro-3-(((3-fluoropyridin-2-yl)methyl)amino)-4H-benzo[e][1,2,4]thiadiazine 1,1-dioxide] cannot be ordered by IC50: less than 100 nM for the first, less than 100 nM for the second.

`Cc1ccccc1C(C)c1c(F)ccc2c1NC(NCc1cccc(F)c1)=NS2(=O)=O` (centres unmarked) [Compound 22-2, 6-fluoro-3-((3-fluorobenzyl)amino)-5-(1-(o-tolyl)ethyl)-4H-benzo[e][1,2,4]thiadiazine 1,1-dioxide] and `Cc1cccc(C(C)c2c(F)ccc3c2NC(NCc2cccc(F)c2)=NS3(=O)=O)c1` (centres unmarked) [Compound 22-12, 6-fluoro-3-((3-fluorobenzyl)amino)-5-(1-(m-tolyl)ethyl)-4H-benzo[e][1,2,4]thiadiazine 1,1-dioxide] cannot be ordered by IC50: less than 100 nM for the first, less than 100 nM for the second.

First: O=S1(=O)N=C(NCc2ncccc2F)Nc2c1ccc(F)c2Oc1c(Cl)cccc1Cl [Compound 1-9, 5-(2,6-dichlorophenoxy)-6-fluoro-3-(((3-fluoropyridin-2-yl)methyl)amino)-4H-benzo[e][1,2,4]thiadiazine 1,1-dioxide]
Second: O=S1(=O)N=C(NCc2ncccc2F)Nc2c1ccc(F)c2Oc1c(F)cccc1Cl [Compound 1-17, 5-(2-chloro-6-fluorophenoxy)-6-fluoro-3-(((3-fluoropyridin-2-yl)methyl)amino)-4H-benzo[e][1,2,4]thiadiazine 1,1-dioxide]
The IC50 of the first is lower: less than 100 nM for the first, 100 to 500 nM for the second.

`O=S1(=O)N=C(NCc2cccc(Cl)c2F)Nc2c1cc(F)c(F)c2Cc1ccccc1Cl` [Compound 4-14, 3-((3-chloro-2-fluorobenzyl)amino)-5-(2-chlorobenzyl)-6,7-difluoro-4H-benzo[e][1,2,4]thiadiazine 1,1-dioxide] and `O=S1(=O)N=C(NCc2ncccc2F)Nc2c1cc(F)c(F)c2Cc1ccccc1Cl` [Compound 4-5, 5-(2-chlorobenzyl)-6,7-difluoro-3-(((3-fluoropyridin-2-yl)methyl)amino)-4H-benzo[e][1,2,4]thiadiazine 1,1-dioxide] fall in the same range of IC50: 100 to 500 nM for the first, 100 to 500 nM for the second.

Compared with `O=S1(=O)N=C(NCc2ccccc2C(F)(F)F)Nc2c1ccc(F)c2Oc1ccccc1Cl` [Compound 1-27, 5-(2-chlorophenoxy)-6-fluoro-3-((2-(trifluoromethyl)benzyl)amino)-4H-benzo[e][1,2,4]thiadiazine 1,1-dioxide], `O=S1(=O)N=C(NCc2ccccc2F)Nc2c1ccc(F)c2Cc1ccccc1Cl` [Compound 4-4, 5-(2-chlorobenzyl)-6-fluoro-3-((2-fluorobenzyl)amino)-4H-benzo[e][1,2,4]thiadiazine 1,1-dioxide] is higher in IC50: less than 100 nM for the first, 100 to 500 nM for the second. The first is the more potent here.

First: CC(c1ccc(N(C)C)cc1)c1c(F)ccc2c1NC(NCc1cccc(F)c1)=NS2(=O)=O (centres unmarked) [Compound 22-13, 5-(1-(4-(dimethylamino)phenyl)ethyl)-6-fluoro-3-((3-fluorobenzyl)amino)-4H-benzo[e][1,2,4]thiadiazine 1,1-dioxide]
Second: CC(c1ccc(N2CCOCC2)cc1)c1c(F)ccc2c1NC(NCc1cccc(F)c1)=NS2(=O)=O (centres unmarked) [Compound 22-16, 6-fluoro-3-((3-fluorobenzyl)amino)-5-(1-(4-morpholinophenyl)ethyl)-4H-benzo[e][1,2,4]thiadiazine 1,1-dioxide]
The IC50 of the first is lower: 100 to 500 nM for the first, 1000 to 2500 nM for the second.

First: O=S1(=O)N=C(NCc2ncccc2F)Nc2c1ccc(F)c2CCc1ccccc1 [Compound 6-1, 6-fluoro-3-(((3-fluoropyridin-2-yl)methyl)amino)-5-phenethyl-4H-benzo[e][1,2,4]thiadiazine 1,1-dioxide]
Second: C=C(c1ccccc1F)c1cccc2c1NC(NCc1ncccc1F)=NS2(=O)=O [Compound 13-2, 5-(1-(2-fluorophenyl)vinyl)-3-(((3-fluoropyridin-2-yl)methyl)amino)-4H-benzo[e][1,2,4]thiadiazine 1,1-dioxide]
The IC50 of the first is higher: 100 to 500 nM for the first, less than 100 nM for the second.

First: N#Cc1ccc2c(c1Oc1ccccc1F)NC(NCc1ncccc1Cl)=NS2(=O)=O [Compound 3-1, 3-(((3-chloropyridin-2-yl)methyl)amino)-5-(2-fluorophenoxy)-4H-benzo[e][1,2,4]thiadiazine-6-carbonitrile 1,1-dioxide]
Second: N#Cc1cccc(Oc2c(F)ccc3c2NC(NCc2ncccc2F)=NS3(=O)=O)c1 [Compound 2-13, 3-((6-fluoro-3-(((3-fluoropyridin-2-yl)methyl)amino)-1,1-dioxido-4H-benzo[e][1,2,4]thiadiazin-5-yl)oxy)benzonitrile]
The IC50 of the first is lower: less than 100 nM for the first, 501 to 1000 nM for the second. The first is the more potent here.

`Cc1cc(F)c(Oc2ccccc2Cl)c2c1S(=O)(=O)N=C(NCc1ncccc1F)N2` [Compound 1-45, 5-(2-chlorophenoxy)-6-fluoro-3-(((3-fluoropyridin-2-yl)methyl)amino)-8-methyl-4H-benzo[e][1,2,4]thiadiazine 1,1-dioxide] and `O=S1(=O)N=C(NCc2ncccc2F)Nc2c1ccc(F)c2Oc1ccc(Cl)cc1` [Compound 2-9, 5-(4-chlorophenoxy)-6-fluoro-3-(((3-fluoropyridin-2-yl)methyl)amino)-4H-benzo[e][1,2,4]thiadiazine 1,1-dioxide] fall in the same range of IC50: 100 to 500 nM for the first, 100 to 500 nM for the second.

Compared with `O=C(c1ccccc1Cl)c1cccc2c1NC(NCc1ncccc1C(F)(F)F)=NS2(=O)=O` [Compound 16-4, (2-chlorophenyl)(1,1-dioxido-3-(((3-(trifluoromethyl)pyridin-2-yl)methyl)amino)-4H-benzo[e][1,2,4]thiadiazin-5-yl)methanone], `O=S1(=O)N=C(NCc2ncccc2O)Nc2c1cc(F)c(F)c2Cc1ccccc1Cl` [Compound 4-18, 5-(2-chlorobenzyl)-6,7-difluoro-3-(((3-hydroxypyridin-2-yl)methyl)amino)-4H-benzo[e][1,2,4]thiadiazine 1,1-dioxide] is higher in IC50: less than 100 nM for the first, greater than 2500 nM for the second. The first is the more potent here.

`CC(c1ccccc1F)c1c(F)ccc2c1NC(NCc1ccccc1)=NS2(=O)=O` (centres unmarked) [Compound 7-4, 3-(benzylamino)-6-fluoro-5-(1-(2-fluorophenyl)ethyl)-4H-benzo[e][1,2,4]thiadiazine 1,1-dioxide] and `C[C@H](c1ccccc1F)c1c(F)ccc2c1NC(NCc1ccccc1F)=NS2(=O)=O` [Compound 24-1, (R)-6-fluoro-3-((2-fluorobenzyl)amino)-5-(1-(2-fluorophenyl)ethyl)-4H-benzo[e][1,2,4]thiadiazine 1,1-dioxide] cannot be ordered by IC50: less than 100 nM for the first, less than 100 nM for the second.

`O=S1(=O)N=C(NCc2ccc(F)cc2Cl)Nc2c(Cc3ccccc3Cl)cccc21` [Compound 12-4, 3-((2-chloro-4-fluorobenzyl)amino)-5-(2-chlorobenzyl)-4H-benzo[e][1,2,4]thiadiazine 1,1-dioxide] and `O=S1(=O)N=C(NCc2ccc(Cl)c(Cl)c2)Nc2c(Cc3ccccc3Cl)cccc21` [Compound 12-12, 5-(2-chlorobenzyl)-3-((3,4-dichlorobenzyl)amino)-4H-benzo[e][1,2,4]thiadiazine 1,1-dioxide] cannot be ordered by IC50: less than 100 nM for the first, less than 100 nM for the second.

`Cc1ccccc1Cc1cccc2c1NC(NCc1ccccc1F)=NS2(=O)=O` [Compound 6-7, 3-((2-fluorobenzyl)amino)-5-(2-methylbenzyl)-4H-benzo[e][1,2,4]thiadiazine 1,1-dioxide] and `O=S1(=O)N=C(NCc2ccccc2F)Nc2c(Cc3ccc(F)cc3)cccc21` [Compound 6-14, 5-(4-fluorobenzyl)-3-((2-fluorobenzyl)amino)-4H-benzo[e][1,2,4]thiadiazine 1,1-dioxide] cannot be ordered by IC50: less than 100 nM for the first, less than 100 nM for the second.

`COc1ccc(C(C)c2c(F)ccc3c2NC(NCc2cccc(F)c2)=NS3(=O)=O)c(F)c1` (centres unmarked) [Compound 22-7, 6-fluoro-5-(1-(2-fluoro-4-methoxyphenyl)ethyl)-3-((3-fluorobenzyl)amino)-4H-benzo[e][1,2,4]thiadiazine 1,1-dioxide] and `CC(c1ccc(F)cc1F)c1c(F)ccc2c1NC(NCc1cccc(F)c1)=NS2(=O)=O` (centres unmarked) [Compound 22-25, 5-(1-(2,4-difluorophenyl)ethyl)-6-fluoro-3-((3-fluorobenzyl)amino)-4H-benzo[e][1,2,4]thiadiazine 1,1-dioxide] cannot be ordered by IC50: less than 100 nM for the first, less than 100 nM for the second.

First: Cc1c(F)cccc1CNC1=NS(=O)(=O)c2ccc(F)c(C(C)c3cccc(Cl)c3Cl)c2N1 (centres unmarked) [Compound 8-3, 5-(1-(2,3-dichlorophenyl)ethyl)-6-fluoro-3-((3-fluoro-2-methylbenzyl)amino)-4H-benzo[e][1,2,4]thiadiazine 1,1-dioxide]
Second: CC(c1ccccc1F)c1c(F)ccc2c1NC(NCc1cccnc1)=NS2(=O)=O (centres unmarked) [Compound 7-3, 6-fluoro-5-(1-(2-fluorophenyl)ethyl)-3-((pyridin-3-ylmethyl)amino)-4H-benzo[e][1,2,4]thiadiazine 1,1-dioxide]
The IC50 of the first is lower: less than 100 nM for the first, 100 to 500 nM for the second.

First: COc1ccncc1CNC1=NS(=O)(=O)c2cccc(Cc3ccccc3Cl)c2N1 [Compound 12-26, 5-(2-chlorobenzyl)-3-(((4-methoxypyridin-3-yl)methyl)amino)-4H-benzo[e][1,2,4]thiadiazine 1,1-dioxide]
Second: CC(Cc1ccc(F)cc1)c1c(F)ccc2c1NC(NCc1cccc(F)c1)=NS2(=O)=O (centres unmarked) [Compound 22-17, 6-fluoro-3-((3-fluorobenzyl)amino)-5-(1-(4-fluorophenyl)propan-2-yl)-4H-benzo[e][1,2,4]thiadiazine 1,1-dioxide]
The IC50 of the first is higher: 1000 to 2500 nM for the first, less than 100 nM for the second.
